In patent US12662489B2 (Sitryx Therapeutics Limited, priority 2023, dated 2026):

Assays:
[1] = molecular target: T1, MTHFD2 recombinant human enzyme (Homo sapiens, UniProt P13995); assay: MTHFD2 inhibition assay (NAD(P)H-Glo luminescence); settings: for MTHFD1/MTHFD2 IC50 ratio: selectivity of MTHFD2 inhibition over MTHFD1, band
T1 sequence (P13995 36-350): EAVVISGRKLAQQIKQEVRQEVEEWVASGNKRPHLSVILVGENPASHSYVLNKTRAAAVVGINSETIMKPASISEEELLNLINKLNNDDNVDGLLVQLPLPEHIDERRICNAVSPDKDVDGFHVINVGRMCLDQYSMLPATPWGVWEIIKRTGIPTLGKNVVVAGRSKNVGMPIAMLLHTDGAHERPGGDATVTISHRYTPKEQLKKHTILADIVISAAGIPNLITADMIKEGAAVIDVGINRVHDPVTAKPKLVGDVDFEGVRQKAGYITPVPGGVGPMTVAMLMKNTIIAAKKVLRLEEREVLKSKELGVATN

[2] = molecular target: T2, MTHFD1 recombinant human enzyme (Homo sapiens, UniProt P11586); assay: MTHFD1 inhibition assay (NAD(P)H-Glo luminescence); settings: MTHFD1 IC50, recombinant human enzyme 200 nM, NADP, band
T2 sequence (P11586 2-291 limits assumed): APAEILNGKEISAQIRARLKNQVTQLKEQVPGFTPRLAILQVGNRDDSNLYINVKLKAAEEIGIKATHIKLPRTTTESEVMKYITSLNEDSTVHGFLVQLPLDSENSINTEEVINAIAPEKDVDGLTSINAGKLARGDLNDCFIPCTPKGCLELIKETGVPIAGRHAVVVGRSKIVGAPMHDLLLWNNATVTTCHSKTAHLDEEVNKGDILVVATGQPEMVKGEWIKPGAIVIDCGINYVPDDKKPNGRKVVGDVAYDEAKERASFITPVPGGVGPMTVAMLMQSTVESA

COC[C@H]1CN(c2ccc3c4c(c(=O)oc3c2C)CN(C(=O)c2ccc(C(=O)NS(=O)(=O)N(C)C)c(N3C5CCC3CC5)c2)CC4)CCN1C [Example 16, (R)-2-(7-azabicyclo[2.2.1]heptan-7-yl)-N-(N,N-dimethylsulfamoyl)-4-(8-(3-(methoxymethyl)-4-methylpiperazin-1-yl)-7-methyl-5-oxo-1,3,4,5-tetrahydro-2H-chromeno[3,4-c]pyridine-3-carbonyl)benzamide]
IC50 [1]: 1 to 10 nM
MTHFD1/MTHFD2 IC50 ratio [1]: F (<3)
IC50 [2]: 1 to 10 nM

COC[C@H]1CN(c2ccc3c4c(c(=O)oc3c2C)CN(C(=O)c2ccc(C(=O)NS(=O)(=O)C3(C)CC3)c(N3C5CCC3CC5)c2)CC4)CCN1C [Example 17, (R)-2-(7-azabicyclo[2.2.1]heptan-7-yl)-4-(8-(3-(methoxymethyl)-4-methylpiperazin-1-yl)-7-methyl-5-oxo-1,3,4,5-tetrahydro-2H-chromeno[3,4-c]pyridine-3-carbonyl)-N-((1-methylcyclopropyl)sulfonyl)benzamide]
IC50 [1]: 10 to 100 nM
MTHFD1/MTHFD2 IC50 ratio [1]: F (<3)
IC50 [2]: 1 to 10 nM

Cc1c(N2CCN3CCOC[C@H]3C2)ccc2c3c(c(=O)oc12)CN(C(=O)c1ccc(C(=O)NS(=O)(=O)N2CCCC2)c(OC2CCC2)c1)CC3 [Example 19, (R)-2-cyclobutoxy-4-(8-(hexahydropyrazino[2,1-c][1,4]oxazin-8(1H)-yl)-7-methyl-5-oxo-1,3,4,5-tetrahydro-2H-chromeno[3,4-c]pyridine-3-carbonyl)-N-(pyrrolidin-1-ylsulfonyl)benzamide]
IC50 [1]: 100 to 1000 nM
MTHFD1/MTHFD2 IC50 ratio [1]: F (<3)
IC50 [2]: 100 to 1000 nM

Cc1c(N2CCN3CCOC[C@H]3C2)cc(C)c2c3c(c(=O)oc12)CN(C(=O)c1ccc(C(=O)NS(=O)(=O)N2CCCC2)c(OC2CCC2)c1)CC3 [Example 21, (R)-2-cyclobutoxy-4-(8-(hexahydropyrazino[2,1-c][1,4]oxazin-8(1 H)-yl)-7,10-dimethyl-5-oxo-1,3,4,5-tetrahydro-2H-chromeno[3,4-c]pyridine-3-carbonyl)-N-(pyrrolidin-1-ylsulfonyl)benzamide]
IC50 [1]: 100 to 1000 nM
MTHFD1/MTHFD2 IC50 ratio [1]: F (<3)
IC50 [2]: 100 to 1000 nM

COC[C@H]1CN(c2ccc3c4c(c(=O)oc3c2C)CN(C(=O)c2cc(F)c(C(=O)NS(=O)(=O)N(C)C)c(N3C5CCC3CC5)c2)CC4)CCN1C [Example 23, (R)-2-(7-azabicyclo[2.2.1]heptan-7-yl)-N-(N,N-dimethylsulfamoyl)-6-fluoro-4-(8-(3-(methoxymethyl)-4-methylpiperazin-1-yl)-7-methyl-5-oxo-1,3,4,5-tetrahydro-2H-chromeno[3,4-c]pyridine-3-carbonyl)benzamide]
IC50 [1]: 1 to 10 nM
MTHFD1/MTHFD2 IC50 ratio [1]: F (<3)
IC50 [2]: 1 to 10 nM

COC[C@H]1CN(c2ccc3c4c(c(=O)oc3c2C)CN(C(=O)c2cc(F)c(C(=O)NS(=O)(=O)C3(C)CC3)c(N3CC5CC5C3)c2)CC4)CCN1C (stereo partly drawn) [Example 26, 2-(3-azabicyclo[3.1.0]hexan-3-yl)-6-fluoro-4-(8-((R)-3-(methoxymethyl)-4-methylpiperazin-1-yl)-7-methyl-5-oxo-1,3,4,5-tetrahydro-2H-chromeno[3,4-c]pyridine-3-carbonyl)-N-((1-methylcyclopropyl)sulfonyl)benzamide]
IC50 [1]: 1 to 10 nM
MTHFD1/MTHFD2 IC50 ratio [1]: F (<3)
IC50 [2]: 1 to 10 nM

COC[C@H]1CN(c2ccc3c4c(c(=O)oc3c2C)CN(C(=O)c2cc(F)c(C(=O)NS(=O)(=O)N(C)C)c(N3CC5CC5C3)c2)CC4)CCN1C (stereo partly drawn) [Example 27, 2-(3-azabicyclo[3.1.0]hexan-3-yl)-N-(N,N-dimethylsulfamoyl)-6-fluoro-4-(8-((R)-3-(methoxymethyl)-4-methylpiperazin-1-yl)-7-methyl-5-oxo-1,3,4,5-tetrahydro-2H-chromeno[3,4-c]pyridine-3-carbonyl)benzamide]
IC50 [1]: 1 to 10 nM
MTHFD1/MTHFD2 IC50 ratio [1]: F (<3)
IC50 [2]: 1 to 10 nM

COC[C@H]1CN(c2cc(C)c3c4c(c(=O)oc3c2C)CN(C(=O)c2cc(F)c(C(=O)NS(=O)(=O)N(C)C)c(N3CC5CC5C3)c2)CC4)CCN1C (stereo partly drawn) [Example 28, 2-(3-azabicyclo[3.1.0]hexan-3-yl)-N-(N,N-dimethylsulfamoyl)-6-fluoro-4-(8-((R)-3-(methoxymethyl)-4-methylpiperazin-1-yl)-7,10-dimethyl-5-oxo-1,3,4,5-tetrahydro-2H-chromeno[3,4-c]pyridine-3-carbonyl)benzamide]
IC50 [1]: 1 to 10 nM
MTHFD1/MTHFD2 IC50 ratio [1]: F (<3)
IC50 [2]: 1 to 10 nM

COC[C@H]1CN(c2ccc3c4c(c(=O)oc3c2Cl)CN(C(=O)c2ccc(C(=O)NS(=O)(=O)N(C)C(C)C)c(OC3CCCC3)c2F)CC4)CCN1C [Example 29, (R)-4-(7-chloro-8-(3-(methoxymethyl)-4-methylpiperazin-1-yl)-5-oxo-1,3,4,5-tetrahydro-2H-chromeno[3,4-c]pyridine-3-carbonyl)-2-(cyclopentyloxy)-3-fluoro-N-(N-isopropyl-N-methylsulfamoyl)benzamide]
IC50 [1]: 10 to 100 nM
MTHFD1/MTHFD2 IC50 ratio [1]: F (<3)
IC50 [2]: 10 to 100 nM

COC[C@H]1CN(c2ccc3c4c(c(=O)oc3c2Cl)CN(C(=O)c2ccc(C(=O)NS(=O)(=O)N(C)C(C)C)c(OC3CCC3)c2F)CC4)CCN1C [Example 30, (R)-4-(7-chloro-8-(3-(methoxymethyl)-4-methylpiperazin-1-yl)-5-oxo-1,3,4,5-tetrahydro-2H-chromeno[3,4-c]pyridine-3-carbonyl)-2-cyclobutoxy-3-fluoro-N-(N-isopropyl-N-methylsulfamoyl)benzamide]
IC50 [1]: 10 to 100 nM
MTHFD1/MTHFD2 IC50 ratio [1]: F (<3)
IC50 [2]: 10 to 100 nM

COC[C@H]1CN(c2ccc3c4c(c(=O)oc3c2C)CN(C(=O)c2ccc(C(=O)NS(=O)(=O)N(C)C(C)C)c(N3CCCC3)c2)CC4)CCN1C [Example 31, (R)-N-(N-isopropyl-N-methylsulfamoyl)-4-(8-(3-(methoxymethyl)-4-methylpiperazin-1-yl)-7-methyl-5-oxo-1,3,4,5-tetrahydro-2H-chromeno[3,4-c]pyridine-3-carbonyl)-2-(pyrrolidin-1-yl)benzamide]
IC50 [1]: 1 to 10 nM
MTHFD1/MTHFD2 IC50 ratio [1]: G (^ 3 to 9.0)
IC50 [2]: 10 to 100 nM

COC[C@H]1CN(c2ccc3c4c(c(=O)oc3c2C)CN(C(=O)c2cc(Cl)c(C(=O)NS(=O)(=O)C3(C)CC3)c(N3CC5CC5C3)c2)CC4)CCN1C (stereo partly drawn) [Example 32, 2-(3-azabicyclo[3.1.0]hexan-3-yl)-6-chloro-4-(8-((R)-3-(methoxymethyl)-4-methylpiperazin-1-yl)-7-methyl-5-oxo-1,3,4,5-tetrahydro-2H-chromeno[3,4-c]pyridine-3-carbonyl)-N-((1-methylcyclopropyl)sulfonyl)benzamide]
IC50 [1]: 10 to 100 nM
MTHFD1/MTHFD2 IC50 ratio [1]: J (>30)
IC50 [2]: 100 to 1000 nM

COC[C@H]1CN(c2ccc3c4c(c(=O)oc3c2C)CN(C(=O)c2cc(Cl)c(C(=O)NS(=O)(=O)N(C)C)c(N3CC5CC5C3)c2)CC4)CCN1C (stereo partly drawn) [Example 33, 2-(3-azabicyclo[3.1.0]hexan-3-yl)-6-chloro-N-(N,N-dimethylsulfamoyl)-4-(8-((R)-3-(methoxymethyl)-4-methylpiperazin-1-yl)-7-methyl-5-oxo-1,3,4,5-tetrahydro-2H-chromeno[3,4-c]pyridine-3-carbonyl)benzamide]
IC50 [1]: 10 to 100 nM
MTHFD1/MTHFD2 IC50 ratio [1]: H (>9.0 to 30)
IC50 [2]: 100 to 1000 nM

COC[C@H]1CN(c2cc(C)c3c4c(c(=O)oc3c2C)CN(C(=O)c2cc(Cl)c(C(=O)NS(=O)(=O)N(C)C)c(N3CC5CC5C3)c2)CC4)CCN1C (stereo partly drawn) [Example 34, 2-(3-azabicyclo[3.1.0]hexan-3-yl)-6-chloro-N-(N,N-dimethylsulfamoyl)-4-(8-((R)-3-(methoxymethyl)-4-methylpiperazin-1-yl)-7,10-dimethyl-5-oxo-1,3,4,5-tetrahydro-2H-chromeno[3,4-c]pyridine-3-carbonyl)benzamide]
IC50 [1]: 1 to 10 nM
MTHFD1/MTHFD2 IC50 ratio [1]: J (>30)
IC50 [2]: 100 to 1000 nM

COC[C@H]1CN(c2cc(C)c3c4c(c(=O)oc3c2C)CN(C(=O)c2ccc(C(=O)NS(=O)(=O)N3CCCC3)c(O[C@@H]3C[C@@H]5C[C@@H]5C3)c2F)CC4)CCN1C [Example 35, 2-(((1R,3r,5S)-bicyclo[3.1.0]hexan-3-yl)oxy)-3-fluoro-4-(8-((R)-3-(methoxymethyl)-4-methylpiperazin-1-yl)-7,10-dimethyl-5-oxo-1,3,4,5-tetrahydro-2H-chromeno[3,4-c]pyridine-3-carbonyl)-N-(pyrrolidin-1-ylsulfonyl)benzamide]
IC50 [1]: 1 to 10 nM
MTHFD1/MTHFD2 IC50 ratio [1]: F (<3)
IC50 [2]: 1 to 10 nM

COC[C@H]1CN(c2cc(C)c3c4c(c(=O)oc3c2C)CN(C(=O)c2ccc(C(=O)NS(=O)(=O)N(C)C(C)C)c(O[C@@H]3C[C@@H]5C[C@@H]5C3)c2F)CC4)CCN1C [Example 36, 2-(((1R,3r,5S)-bicyclo[3.1.0]hexan-3-yl)oxy)-3-fluoro-N-(N-isopropyl-N-methylsulfamoyl)-4-(8-((R)-3-(methoxymethyl)-4-methylpiperazin-1-yl)-7,10-dimethyl-5-oxo-1,3,4,5-tetrahydro-2H-chromeno[3,4-c]pyridine-3-carbonyl)benzamide]
IC50 [1]: 1 to 10 nM
MTHFD1/MTHFD2 IC50 ratio [1]: F (<3)
IC50 [2]: 1 to 10 nM
